Experimental findings from patent publication US7148249B2, “Indolinones substituted by heterocycles, the preparation thereof and their use as medicaments” (Boehringer Ingelheim Pharma GmbH & Co. KG, priority 2002, dated 2006) are described below.

Where a name gives a salt, the structure may show the parent alone.

Series [1] deals with Human umbilical endothelial cells (HUVEC). Briefly: Inhibition of VEGF165-stimulated HUVEC proliferation (3H-thymidine incorporation). The settings on record: Homo sapiens; HUVEC proliferation stimulated with 5 ng/ml VEGF165 and 10 μg/ml heparin; 76 h incubation + 16 h 3H-thymidine. It counts as cell-based. The protocol:
Human umbilical endothelial cells (HUVEC) were cultivated in IMDM (Gibco BRL), supplemented with 10% foetal calf serum (FBS) (Sigma), 50 μM of β-mercaptoethanol (Fluka), standard antibiotics, 15 μg/ml of endothelial cell growth factor (ECGS, Collaborative Biomedical Products) and 100 μg/ml of heparin (Sigma) on gelatine-coated culture dishes (0.2% gelatine, Sigma) at 37° C., under 5% CO2 in a water-saturated atmosphere.
In order to investigate the inhibitory activity of the compounds according to the invention the cells were “starved” for 16 hours, i.e. kept in culture medium without growth factors (ECGS+heparin). The cells were detached from the culture dishes using trypsin/EDTA and washed once in serum-containing medium. Then they were seeded out in amounts of 2.5×10^3 cells per well.
The proliferation of the cells was stimulated with 5 ng/ml of VEGF165 (vascular endothelial growth factor; H. Weich, GBF Braunschweig) and 10 μg/ml of heparin. As a control, 6 wells in each dish were not stimulated.
The compounds according to the invention were dissolved in 100% dimethylsulphoxide and added to the cultures in various dilutions as triple measurements, the maximum dimethylsulphoxide concentration being 0.3%.
The cells were incubated for 76 hours at 37° C., then for a further 16 hours ^3H-thymidine (0.1 μCi/well, Amersham) was added in order to determine the DNA synthesis. Then the radioactively labelled cells were immobilised on filter mats and the radioactivity incorporated was measured in a β-counter. In order to determine the inhibitory activity of the compounds according to the invention the mean value of the non-stimulated cells was subtracted from the mean value of the factor-stimulated cells (in the presence or absence of the compounds according to the invention).
The relative cell proliferation was calculated as a percentage of the control (HUVEC without inhibitor) and the concentration of active substance which inhibits the proliferation of the cells by 50% (IC50) was determined.

For orientation: melting point means the temperature, or range, at which the solid turns liquid. Take `CCNCc1ccc(N/C(=C2\C(=O)Nc3cc(Cl)ccc32)c2ccc3c(c2)OCO3)cc1` (as salt: salt) [Example 8.0, 6-chloro-3-(Z)-{1-[4-(ethylaminomethyl)-phenylamino]-1-(3,4-methylenedioxyphenyl)-methylene}-2-indolinone]: the melting point was 248 to 250 °C.
Same read-out and setting: the same measure for `CCNCc1ccc(N/C(=C2\C(=O)Nc3cc(F)ccc32)c2ccc3c(c2)ncn3C)cc1` (as salt: salt) [Example 11, 6-fluoro-3-(Z)-{1-[4-(ethylaminomethyl)-phenylamino]-1-(1-methylbenzimidazol-5-yl)-methylene}-2-indolinone]: 226 to 228 °C.
For orientation: IC50 means the concentration at which inhibition is half-maximal. Consider `CN(C)Cc1ccc(N/C(=C2\C(=O)Nc3ccccc32)c2ccc3nc[nH]c3c2)cc1` [(ag), 3-(Z)-{1-[4-(dimethylaminomethyl)-phenylamino]-1-(benzimidazol-5-yl)-methylene}-2-indolinone], for which the melting point is 273 to 277 °C (dec.). Further, the IC50 in series [1] worked out at 31 nM.
On the same counts, the results for `O=C1Nc2cc(Cl)ccc2/C1=C(/Nc1ccc(CN2CCCC2)cc1)c1ccc2nc[nH]c2c1` [(ai), 3-(Z)-{1-[4-(pyrrolidin-1-yl-methyl)-phenylamino]-1-(benzimidazol-5-yl)-methylene}-6-chloro-2-indolinone] are 277 to 279 °C and 3 nM.
`CN(C)CC(=O)N(C)c1ccc(N/C(=C2\C(=O)Nc3ccccc32)c2ccc3c(c2)OCO3)cc1` [(aj), 3-(Z)-{1-(4-[N-methyl-N-(dimethylaminomethylcarbonyl)-amino]-phenylamino)-1-(3,4-methylenedioxyphenyl)-methylene}-2-indolinone] returned a melting point of 221 to 222 °C. In addition, the IC50 in series [1] was found to be 13 nM.
In turn, `CN(C)CC(=O)N(C)c1ccc(N/C(=C2\C(=O)Nc3cc(Cl)ccc32)c2ccc3c(c2)ncn3C)cc1` [(ak), 3-(Z)-{1-(4-[N-methyl-N-(dimethylaminomethylcarbonyl)-amino]-phenylamino)-1-(1-methyl-benzimidazol-5-yl)-methylene}-6-chloro-2-indolinone] showed a melting point of 270 °C. Moreover, the IC50 in series [1] came out at 30 nM.
On the same counts, the results for `CCCS(=O)(=O)N(CCN(C)C)c1ccc(N/C(=C2\C(=O)Nc3cc(Cl)ccc32)c2ccncc2)cc1` [(ax), 3-(Z)-{1-(4-[N-(propanesulphonyl)-N-(2-dimethylaminoethyl)-amino]-phenylamino)-1-(4-pyridyl)-methylene}-6-chloro-2-indolinone] are 228 to 232 °C and 37 nM.
For `Cc1nc2ccc(/C(Nc3ccc(CN4CCCC4)cc3)=C3/C(=O)Nc4cc(Cl)ccc43)cc2[nH]1` [(ay), 3-(Z)-{1-[4-(pyrrolidin-1-yl-methyl)-phenylamino]-1-(2-methyl-benzimidazol-5-yl)-methylene}-6-chloro-2-indolinone], the melting point is 295 to 297 °C (dec.). Further, in series [1], the 50% inhibitory concentration (IC50) is 19 nM.
`CN(C)Cc1ccc(N/C(=C2\C(=O)Nc3cc(Cl)ccc32)c2ccc3c(c2)ncn3C)cc1` [(f), 3-(Z)-{1-[4-(dimethylaminomethyl)-phenylamino]-1-(1-methyl-benzimidazol-5-yl)-methylene}-6-chloro-2-indolinone]: the melting point is 288 °C (dec.). Also, the IC50 in series [1] was determined as 2 nM.
As for `CCNCc1ccc(N/C(=C2\C(=O)Nc3cc(F)ccc32)c2ccc3c(c2)OCCO3)cc1` [(l), 3-(Z)-{1-[4-(ethylaminomethyl)-phenylamino]-1-(3,4-ethylenedioxyphenyl)-methylene}-6-fluoro-2-indolinone], the melting point was 153 to 154 °C. Moreover, in series [1], the IC50 was 10 nM.
Turning to `CCC(=O)N(CCN(C)C)c1ccc(N/C(=C2\C(=O)Nc3cc(Cl)ccc32)c2ccc3c(c2)OCCO3)cc1` [(o), 3-(Z)-{1-(4-[N-propionyl-N-(2-dimethylaminoethyl)-amino]-phenylamino)-1-(3,4-ethylenedioxyphenyl)-methylene}-6-chloro-2-indolinone], in series [1], the IC50 is 1 nM.
As for `CC(=O)N(CCN(C)C)c1ccc(N/C(=C2\C(=O)Nc3cc(Cl)ccc32)c2ccc3c(c2)OCCO3)cc1` [(p), 3-(Z)-{1-(4-[N-acetyl-N-(2-dimethylaminoethyl)-amino]-phenylamino)-1-(3,4-ethylenedioxyphenyl)-methylene}-6-chloro-2-indolinone], in series [1], the IC50 was 2 nM.
As to `CN1CCN(Cc2ccc(N/C(=C3\C(=O)Nc4cc(Cl)ccc43)c3ccc4c(c3)OCO4)cc2)CC1` [(q), 3-(Z)-{1-(4-[4-methylpiperazin-1-yl-methyl]-phenylamino)-1-(3,4-methylenedioxy-phenyl)-methylene}-6-chloro-2-indolinone], the IC50 in series [1] worked out at 2 nM.
As for `COC(=O)c1ccc2c(c1)NC(=O)/C2=C(\Nc1ccc(N(CCN(C)C)S(C)(=O)=O)cc1)c1ccc2c(c1)OCCO2` [(r), 3-(Z)-{1-(4-[N-methanesulphonyl-N-(2-dimethylaminoethyl)-amino]-phenylamino)-1-(3,4-ethylenedioxyphenyl)-methylene}-6-methoxycarbonyl-2-indolinone], the IC50 in series [1] worked out at 0.2 nM.
Regarding `COC(=O)c1ccc2c(c1)NC(=O)/C2=C(\Nc1ccc(CN2CCCC2)cc1)c1ccc2c(c1)OCCO2` [(s), 3-(Z)-{1-(4-[pyrrolidin-1-yl-methyl]-phenylamino)-1-(3,4-ethylenedioxyphenyl)-methylene}-6-methoxycarbonyl-2-indolinone], the IC50 in series [1] stood at 0.6 nM.
As to `COC(=O)c1ccc2c(c1)NC(=O)/C2=C(\Nc1ccc(N(C)C(=O)CN(C)C)cc1)c1ccc2c(c1)OCCO2` [(t), 3-(Z)-{1-(4-[N-methyl-N-(dimethylaminomethylcarbonyl)-amino]-phenylamino)-1-(3,4-ethylenedioxyphenyl)-methylene}-6-methoxycarbonyl-2-indolinone], the IC50 in series [1] is 0.6 nM.
For `COC(=O)c1ccc2c(c1)NC(=O)/C2=C(\Nc1ccc(CN(C)C)cc1)c1ccc2c(c1)OCO2` [(w), 3-(Z)-{1-(4-[dimethylamino-methyl]-phenylamino)-1-(3,4-methylenedioxyphenyl)-methylene}-6-methoxycarbonyl-2-indolinone], the IC50 in series [1] was determined as 0.5 nM.
For the compound `CCN(CC)Cc1ccc(N/C(=C2\C(=O)Nc3cc(C(=O)OC)ccc32)c2ccc3c(c2)OCO3)cc1` [(x), 3-(Z)-{1-(4-[diethylamino-methyl]-phenylamino)-1-(3,4-methylenedioxyphenyl)-methylene}-6-methoxycarbonyl-2-indolinone], the IC50 in series [1] came to 1 nM.
For the compound `CN(C)C(=O)c1ccc(N/C(=C2\C(=O)Nc3cc(F)ccc32)c2ccc3c(c2)ncn3C)cc1` [(y), 3-(Z)-{1-[4-(dimethylaminocarbonyl)-phenylamino]-1-(1-methyl-benzimidazol-5-yl)-methylene}-6-fluoro-2-indolinone], the IC50 in series [1] was found to be 14 nM.
Take `CCC(=O)N(CCCN(C)C)c1ccc(N/C(=C2\C(=O)Nc3cc(F)ccc32)c2ccc3c(c2)OCCO3)cc1` [(z), 3-(Z)-{1-(4-[N-propionyl-N-(3-dimethylaminopropyl)-amino]-phenylamino)-1-(3,4-ethylenedioxyphenyl)-methylene}-6-fluoro-2-indolinone]: the half-inhibitory concentration (IC50) in series [1] was 0.5 nM.
For the compound `CCC(=O)N(CCCN(C)C)c1ccc(N/C(=C2\C(=O)Nc3ccccc32)c2coc(N(Cc3ccccc3)Cc3ccccc3)n2)cc1` [Example 1.0, 3-(Z)-[1-{4-[N-propionyl-N-(3-dimethylamino-propyl)-amino]-phenylamino}-1-(2-dibenzylamino-4-oxazolyl)-methylene]-2-indolinone], the melting point was 204 to 205 °C.
Still for that read-out and setting: the same measure for `CN(C)CC(=O)N(C)c1ccc(N/C(=C2\C(=O)Nc3ccccc32)c2cnccn2)cc1` [Example 2.0, 3-(Z)-{1-[4-(N-dimethylaminomethylcarbonyl-N-methyl-amino)-phenylamino]-1-(2-pyrazinyl)-methylene}-2-indolinone]: 198 to 199 °C; for `CN(C)CC(=O)N(C)c1ccc(N/C(=C2\C(=O)Nc3cc(Cl)ccc32)c2ccncc2)cc1` [Example 3.0, 6-Chloro-3-(Z)-[1-(4-{N-(dimethylaminomethylcarbonyl)-N-methyl-amino}-phenyl-amino)-1-(4-pyridyl)-methylene]-2-indolinone]: 274 to 276 °C; for `CN1CCC(N/C(=C2\C(=O)Nc3ccccc32)c2ccoc2)CC1` [Example 6.0, 3-(Z)-[1-(1-methylpiperidin-4-ylamino)-1-(3-furyl)-methylene]-2-indolinone]: 255 to 260 °C.
The same measure, in the same setting: in the case of `CNC(=O)c1ccc2c(c1)NC(=O)/C2=C(\Nc1ccc(CN2CCN(C)CC2)cc1)c1ccc2c(c1)OCCO2` [Example 10.0, 6-methylaminocarbonyl-3-(Z)-{1-[4-(1-methylpiperazin-4-yl-methyl)-phenylamino]-1-(3,4-ethylenedioxyphenyl)-methylene}-2-indolinone] it was 172 °C.
